Laboratory results reported in PubChem BioAssay AID743396 (Broad Institute, 2014).
The source made the active and inactive calls.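 The calls were made as follows: active = fitted curve reaches a 40% rise in fluorescent cells at or below the top valid dose; inactive = opposite-direction effect, or the rest.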

Assay: autofluorescent compounds in non-GFP fibroblasts, dose response, artefact control for X-chromosome reactivation project, imaging, mTEFS fibroblasts, cherry-pick (AID 743396);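 also: raw share of Hoechst-counted cells scored GFP positive without control normalization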
Conditions: mTEFS fibroblasts autofluorescence, GFP-channel imaging, 3 days; at 19.5 µM (top of the series)

| SMILES | % fluorescent cells increase |
| --- | --- |
| COP(=S)(OC)Oc1ccc(Sc2ccc(OP(=S)(OC)OC)cc2)cc1 | 0.075% (inactive) |
| Cc1cc(/C=C2/C(=O)NC(=O)N(Cc3ccco3)C2=O)c(C)n1-c1ccccc1O | 0% (inactive) |
| COCCCn1c(N)c(C(=O)Nc2ccccc2)c2nc3ccccc3nc21 | 0.01% (inactive) |

Same assay, conditions: mTEFS fibroblasts autofluorescence, GFP-channel imaging, 3 days; at 19.5 µM (top of the series); cells pretreated with 5-aza-dC

| SMILES | % fluorescent cells increase |
| --- | --- |
| Cc1cccc(-c2ccc([C@@H]3[C@@H](CO)N4CCCCN(S(=O)(=O)c5ccccc5F)C[C@H]34)cc2)c1 | 8.13% (inactive) |
| COC(=O)c1cc(C(=O)N2CCN(c3ccccc3OC)CC2)cc([N+](=O)[O-])c1 | 0% (inactive) |
| CC1Oc2ccccc2C=C1/C=N\NC(=O)c1cccnc1 (stereo not given) | 0% (inactive) |
| COc1ccc(NC(=O)Nc2ccc3c(c2)C(=O)N([C@H](C)CO)C[C@H](C)[C@H](CN(C)Cc2ccc4c(c2)OCO4)O3)cc1 | -0.166% (inactive) |
| CCCN(C(=O)c1ccc(-n2cncn2)c([N+](=O)[O-])c1)C1CCS(=O)(=O)C1 (stereo not given) | 0.034% (inactive) |
| O=C(Nc1cccc(C(=O)O)c1)/C(=C\c1ccccc1)NC(=O)c1ccc(Br)o1 | 0% (inactive) |
| C(CCCN1CCCCC1)CCN1CCCCC1 | 0.016% (inactive) |
| CNc1ncnc(Sc2ccc(Cl)cc2)c1[N+](=O)[O-] | 0% (inactive) |
| F[B-](F)(F)c1cnc2ccccc2c1 | 0.137% (inactive) |
| Cc1ccc(S(=O)(=O)N(C)c2ccc(C)c([N+](=O)[O-])c2)cc1 | 0.055% (inactive) |
| CCCCC(=O)N(C)c1c(CC)nc2c(OCC(=O)c3ccc(F)cc3)cccn12 | 3.76% (inactive) |
| Cc1ccc(NC(=O)c2cc(N3C(=O)C=CC3=O)ccc2N2CCOCC2)cc1Cl | -0.004% (inactive) |
| Cc1ccc(N(C)C(=O)C2CCN(S(=O)(=O)c3ccc4c(c3)oc(=O)n4C)CC2)cc1 | -0.007% (inactive) |
| CN(C1CCCCC1)S(=O)(=O)c1ccc(C(=O)N2CCN(c3nc4ccccc4s3)CC2)cc1 | -0.007% (inactive) |
| COc1cc(/C=C/c2ccc3cccc(O)c3n2)ccc1O | 0% (inactive) |
| CCCNC(=O)N1CC2(CN(S(C)(=O)=O)C2)c2c(n(C)c3cc(OC)ccc23)[C@H]1CO | 0.032% (inactive) |
| CCC(C)c1nc2ccsc2c(N2CCOC2=O)c1-c1ccccc1 (stereo not given) | -0.011% (inactive) |
| Cc1nn(-c2ccccc2)c(C)c1N | 0% (inactive) |
| COc1ccc(C(=O)N/N=C/c2cc(Br)ccc2O)cc1OC | 4.96% (inactive) |

| SMILES | % fluorescent cells increase |
| --- | --- |
| C=C(C)c1cccc(C(C)(C)NC(=O)Nc2nnc(C(C)C)s2)c1 | 0% (inactive) |
| O=C(CC1C(=O)Nc2ccccc2N1CC(=O)N1CCCC1)Nc1ccc(Br)cc1 (stereo not given) | 0% (inactive) |
| CCc1ccc(CCC(=O)Nc2ncc(Cc3ccccc3Cl)s2)o1 | -0.007% (inactive) |
| Cc1ccc(C(=O)c2oc3ccccc3c2NC(=O)c2cc(-c3ccccc3O)n[nH]2)cc1 | 9.74% (inactive) |
| CNC(=O)C[C@H]1C(=O)N(c2ccccc2)C[C@@H]1C | 0% (inactive) |
| CN(Cc1nc(CCc2ccccc2)no1)Cc1cccs1 | 0.295% (inactive) |
| CC[C@]12c3[nH]c4cc(CCC(=O)N(C)C)ccc4c3CCN1C(=O)[C@@H](CC(=O)NCCC1=CCCCC1)C[C@@H]2C(=O)N1CCN(C(=O)c2ccco2)CC1 | 0.051% (inactive) |
| C[C@@H]1CN(C)C(=O)Cc2cc(N(C)C)ccc2O[C@@H]1CN(C)S(C)(=O)=O | 0.125% (inactive) |
| COc1ccccc1-c1ccc(/C=N/O)o1 | 0% (inactive) |
| CCOC(=O)Nc1ccc2nc(-c3cscn3)[nH]c2c1 | 0.274% (inactive) |
| CC(=O)Nc1ccc(S(=O)(=O)N(C)c2ccc(OCC(=O)NCCc3ccccc3F)cc2)cc1 | 0.014% (inactive) |
| C[C@@H]1CN([C@H](C)CO)C(=O)c2cc(NS(=O)(=O)c3ccc(F)cc3)ccc2O[C@@H](C)CCCCO[C@@H]1CN(C)Cc1ccc2c(c1)OCO2 | 0% (inactive) |
| COc1cccc(-c2ccc(C3[C@@H]4CN(C(=O)C5CCCCC5)C[C@H]3N4)cc2)c1 (stereo not given in full) | 0% (inactive) |
| COc1ccc(CN(C)Cc2nc(Cc3ccccc3Cl)no2)cc1OC | 0.025% (inactive) |
| Cc1cc(C(=O)Nc2ccc(Cl)c(S(=O)(=O)N3CCOCC3)c2)c2ccccc2n1 | 0.116% (inactive) |
| C[C@H](CO)N1C[C@H](C)[C@H](CN(C)C(=O)Nc2ccc(F)cc2)Oc2ncc(C#Cc3cccc(F)c3)cc2C1=O | -0.166% (inactive) |
| CCOC(=O)c1sc2nc(CSc3ccccc3)[nH]c(=O)c2c1C | 0.048% (inactive) |
| COCCN(C(=O)c1ccc2c(c1)C(=O)N(c1ccccc1Cl)C2=O)c1c(N)n(CC(C)C)c(=O)[nH]c1=O | 1.41% (inactive) |
| Cc1cccc(CS(=O)(=O)Cc2ccc(C(=O)NCc3cccs3)o2)c1 | 0.029% (inactive) |

| SMILES | % fluorescent cells increase |
| --- | --- |
| CC1CC(C)CN(C(=O)C(C)N2CCN(S(=O)(=O)c3ccccc3F)CC2)C1 (stereo not given) | 0.338% (inactive) |
| COc1ccc(C(=O)CN2Cc3ccccc3C2=N)cc1 | 0.041% (inactive) |
| Cc1cc(=O)[nH]c(N/N=C/c2cc(C)n(CC(F)(F)F)c2C)n1 | 0% (inactive) |
| O=[N+]([O-])c1ccc(/C=N/NC(=S)Nc2ccc(Cl)cc2Cl)s1 | 0.614% (inactive) |
| CN(C)S(=O)(=O)c1cccc(C(=O)NCC2(N3CCOCC3)CCCCC2)c1 | 0.019% (inactive) |
| CC(=NNC(=S)Nc1cccc(Cl)c1)c1ccccn1 | 0% (inactive) |
| CSc1ccc(CN2C(=O)NC3(CCCCCCC3)C2=O)cc1 | -0.004% (inactive) |
| COc1ccccc1/C=C/C(=O)OCC(=O)NC(=O)NC1CCCC1 | 0% (inactive) |
| C=Cc1cnc([N+](=O)[O-])n1C | 0.007% (inactive) |
| C[C@@H]1CN([C@@H](C)CO)C(=O)c2cc(NS(=O)(=O)c3ccccc3)ccc2O[C@@H](C)CCCCO[C@@H]1CN(C)Cc1ccc2c(c1)OCO2 | 0% (inactive) |
| CN(C)CCN(C(=O)c1ccc(S(=O)(=O)N(C)c2ccccc2)cc1)c1nc2cc3c(cc2s1)OCCO3 | 0% (inactive) |
| O=C(O)c1ccccc1CSc1nc2ccccc2n1Cc1ccccc1C(=O)O | 0.253% (inactive) |
| COc1ccc(N2C(=O)C3CCCN3C2c2cccc(OC)c2)cc1 (stereo not given) | 0.021% (inactive) |
| Cc1cc(=O)[nH]c(N/N=C/c2cc(C)n(-c3ccccc3)c2C)n1 | 0% (inactive) |
| CC(C)Oc1ccc(/C(O)=C2/C(=O)C(=O)N(CCN(C)C)C2c2cccs2)cc1 (stereo not given) | 0% (inactive) |
| Cc1ccc(C)c(CSC2=NN3CCCC(=O)N=C3S2)c1 | -0.006% (inactive) |
| CCc1nc(C)cn1S(=O)(=O)c1ccc([N+](=O)[O-])cc1 | 0.011% (inactive) |
| O=C(N/N=C/c1ccc2cccnc2c1)c1nc2ccccc2c(=O)[nH]1 | 0.022% (inactive) |

Same assay, conditions: mTEFS fibroblasts autofluorescence, GFP-channel imaging, 3 days; at 21 µM (top of the series); cells pretreated with 5-aza-dC

| SMILES | % fluorescent cells increase |
| --- | --- |
| Cc1noc(C)c1NC(=O)N(C)C[C@@H]1Oc2ccc(NC(=O)C3CC3)cc2CC(=O)N([C@@H](C)CO)C[C@@H]1C | 0.068% (inactive) |
